The text below walks through data of patent US11178873B2, “Cyclic N-carboxamide compounds useful as herbicides” (FMC CORPORATION, priority 2015, dated 2021).

What all share (format): in vivo
What all share (conditions): 1000 g ai/ha, 0 to 100 scale, 0 no effect, 100 complete control

Experiment [1] deals with barnyardgrass (Echinochloa crus-galli). Nature of the experiment: Test A preemergence, barnyardgrass. The text has this:
(§1) Seeds of plant species selected from barnyardgrass (Echinochloa crus-galli), crabgrass, large (large crabgrass, Digitaria sanguinalis), kochia (Kochia scoparia), ragweed (common ragweed, Ambrosia elatior), morningglory (Ipomoea spp.), velvetleaf (Abutilon theophrasti), ryegrass, Italian (Italian ryegrass, Lolium multiflorum), foxtail, giant (giant foxtail, Setaria faberii), wheat (Triticum aestivum), corn (Zea mays), and pigweed (Amaranthus retroflexus), were planted into a blend of loam soil and sand and treated preemergence with a directed soil spray using test chemicals formulated in a non-phytotoxic solvent mixture which included a surfactant. At the same time, plants selected from these crop and weed species and also blackgrass (Alopecurus myosuroides), and galium (catchweed bedstraw, Galium aparine), were planted in pots containing the same blend of loam soil and sand and treated with postemergence applications of test chemicals formulated in the same manner. Plants ranged in height from 2 to 10 cm and were in the one- to two-leaf stage for the postemergence treatment. Treated plants and untreated controls were maintained in a greenhouse for approximately 10 d, after which time all treated plants were compared to untreated controls and visually evaluated for injury. Plant response ratings, summarized in Table A, are based on a 0 to 100 scale where 0 is no effect and 100 is complete control. A dash (-) response means no test result.

The subject of experiment [2] is foxtail, giant (giant foxtail, Setaria faberii). Put plainly: Test A preemergence, foxtail, giant.
Text: as §1

Experiment [3] has as its system ryegrass, Italian (Italian ryegrass, Lolium multiflorum). Put plainly: Test A preemergence, ryegrass, Italian.
Text: as §1

For experiment [4], the system named is wheat (Triticum aestivum). Nature of the experiment: Test A postemergence, wheat.
Text: as §1

The test system of experiment [5] is barnyardgrass (Echinochloa crus-galli). Put plainly: Test A postemergence, barnyardgrass.
Text: as §1

Experiment [6] relates to kochia (Kochia scoparia). Put plainly: Test A preemergence, kochia.
Text: as §1

Experiment [7] relates to kochia (Kochia scoparia). Nature of the experiment: Test A postemergence, kochia.
Text: as §1

Experiment [8] deals with ryegrass, Italian (Italian ryegrass, Lolium multiflorum). Put plainly: Test A postemergence, ryegrass, Italian.
Text: as §1

Experiment [9] relates to pigweed (Amaranthus retroflexus). Nature of the experiment: Test A preemergence, pigweed.
Text: as §1

The subject of a further experiment is corn (Zea mays). Nature of the experiment: Test A postemergence, corn.
Text: as §1

Experiment [10] concerns pigweed (Amaranthus retroflexus). Nature of the experiment: Test A postemergence, pigweed.
Text: as §1

For experiment [11], the system named is ragweed (common ragweed, Ambrosia elatior). Nature of the experiment: Test A postemergence, ragweed.
Text: as §1

For experiment [12], the system named is foxtail, giant (giant foxtail, Setaria faberii). Put plainly: Test A postemergence, foxtail, giant.
Text: as §1

The test system of experiment [13] is blackgrass (Alopecurus myosuroides). Put plainly: Test A postemergence, blackgrass.
Text: as §1

The subject of experiment [14] is ragweed (common ragweed, Ambrosia elatior). Nature of the experiment: Test A preemergence, ragweed.
Text: as §1

For experiment [15], the system named is galium (catchweed bedstraw, Galium aparine). Put plainly: Test A postemergence, galium.
Text: as §1

Regarding `Cc1ccc(C2CCC(=O)N2C(=O)Nc2ccccc2F)cc1` (stereo not drawn) [Compound 19], the “Plant response rating, Barnyardgrass” value in experiment [1] worked out at 40; in experiment [5] it was 0. The “Plant response rating, Foxtail, Giant” value is on record as 40 in experiment [2] and 0 in experiment [12]. For the same compound, the “Plant response rating, Ryegrass, Italian” value in [3] and in [8] was 0 each time. Further, the “Plant response rating, Wheat” value in experiment [4] was determined as 0. Besides, the results for the “Plant response rating, Kochia” value with kochia (Kochia scoparia) [6] and in the experiment on kochia (Kochia scoparia) [7] were 20 and 0, respectively. Besides, the entries for the “Plant response rating, Pigweed” value in [9] and in experiment [10] were 70 and 0, respectively. In the experiment on corn (Zea mays), the “Plant response rating, Corn” value turned out to be 0. The “Plant response rating, Ragweed” value in [11] and in experiment [14] was 0 in each case. The “Plant response rating, Blackgrass” value in experiment [13] came out at 0. Further, in experiment [15], the “Plant response rating, Galium” value is 0.

On to `Cc1ccc(C2CCC(=O)N2C(=O)Nc2ccccc2C(F)(F)F)cc1` (stereo not drawn) [Compound 20], for which the “Plant response rating, Barnyardgrass” value in experiment [1] and in experiment [5] was 0 throughout. Moreover, the results for the “Plant response rating, Foxtail, Giant” value in experiment [2] and in [12] were 20 and 0, respectively. The “Plant response rating, Ryegrass, Italian” value in experiment [3] and in [8] was 0 each time. Moreover, the “Plant response rating, Wheat” value in experiment [4] turned out to be 0. Further, the “Plant response rating, Kochia” value in the experiment with kochia (Kochia scoparia) [6] and with kochia (Kochia scoparia) [7] was 0 in each case. The “Plant response rating, Pigweed” value in [9] and in [10] was 0 in each case. Besides, the “Plant response rating, Corn” value in the experiment with corn (Zea mays) is recorded as 0. In addition, the “Plant response rating, Ragweed” value in [11] and in experiment [14] was 0 each time. For the same compound, in experiment [13], the “Plant response rating, Blackgrass” value was 0. Moreover, the “Plant response rating, Galium” value in experiment [15] is recorded as 0.

For `Cc1ccc(C2CCC(=O)N2C(=O)Nc2ccc(F)c(F)c2F)cc1` (stereo not drawn) [Compound 21], the “Plant response rating, Barnyardgrass” value in [1] is reported as 20; in experiment [5] it was 0. The “Plant response rating, Foxtail, Giant” value in [2] is on record as 70; in experiment [12], 0. The “Plant response rating, Ryegrass, Italian” value in [3] and in experiment [8] was 0 each time. Further, in [4], the “Plant response rating, Wheat” value was determined as 0. Also, the “Plant response rating, Kochia” value in the experiment with kochia (Kochia scoparia) [6] and in the experiment with kochia (Kochia scoparia) [7] was 0 throughout. In addition, the “Plant response rating, Pigweed” value in experiment [9] and in experiment [10] was 0 throughout. Moreover, the “Plant response rating, Corn” value in the experiment with corn (Zea mays) came out at 0. The “Plant response rating, Ragweed” value in [11] and in experiment [14] was 0 each time. Further, in experiment [13], the “Plant response rating, Blackgrass” value is 0. The “Plant response rating, Galium” value in experiment [15] is given as 0.
